Results taken from PubChem BioAssay (NCI).
Several values for one entry are separate records, joined by “and”; a condition that tells them apart may be missing. Identical values can stand only once.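 Cultured in 96-well plates, cells were exposed to test compound for 48 hours across five concentrations. Here, GI50 denotes the concentration required for 50% inhibition of growth. Definition used: TGI = concentration required for complete inhibition of growth.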 *1 amine or outer side, *2 acyl side, *3 side chain or, on linkers, in order; H or OH if unused. Where a SMILES comes first, the peptide text is derived from it. Bridges are numbered along the chain shown (N, C = ends). [ ]: non-standard residue; d: D form. The star is where a group is joined. Phe(3-Me) = Cc1cccc(C[C@H](N)C(=O)O)c1; NH(4-Cl-2-F-phenyl) = Fc1cc(Cl)ccc1N*; Pro(4R-Me) = C[C@H]1CN[C@H](C(=O)O)C1; Propanoyl(3-NMe2) = CN(C)CCC(=O)*; Hyp = O=C(O)[C@@H]1C[C@@H](O)CN1; aThr = C[C@H](O)[C@H](N)C(=O)O; Pip = O=C(O)[C@@H]1CCCCN1; CO = O=C([*:1])[*:2]

Assays:
Experiment in all cases: NCI-60 cell line screen, 48 h
[1] = test system: CAKI-1 renal
[2] = test system: COLO 205 colon
[3] = test system: HCC-2998 colon
[4] = test system: M14 melanoma
[5] = test system: NCI-H226 lung
[6] = test system: OVCAR-5 ovarian
[7] = test system: RPMI-8226 leukemia
[8] = test system: SR leukemia
[9] = test system: T-47D breast
[10] = test system: U251 CNS

Compound	GI50 [1]	TGI [1] [µM]	GI50 [2] [µM]	TGI [2] [µM]	GI50 [3] [µM]	TGI [3] [µM]	GI50 [4] [µM]	TGI [4] [µM]	GI50 [5]	TGI [5] [µM]	GI50 [6] [µM]	TGI [6] [µM]	GI50 [7] [µM]	TGI [7] [µM]	GI50 [8] [µM]	TGI [8] [µM]	GI50 [9]	TGI [9]	GI50 [10] [µM]	TGI [10] [µM]
C/C(=N\NC(=O)c1ccncc1)c1ccc(O)cc1O	2.37 µM	8	3.8	> 100	3.59	> 100	6.44	> 100	5.14 µM	80.9	27	> 100	31.5	> 100	4.16	> 100	11.4 µM	> 100 µM	1.59	> 100
Cc1cccc(C[C@H](NC(=O)Nc2ccc(Cl)cc2F)C(=O)N[C@@H]2C(=O)N3C[C@H](OC(=O)CCN(C)C)C[C@H]3C(=O)N3CCCC[C@H]3C(=O)N[C@@H](C)C(=O)N3C[C@H](C)C[C@H]3C(=O)O[C@H]2C)c1 ({NH(4-Cl-2-F-phenyl)-CO}-[Phe(3-Me)][aThr][Hyp](Propanoyl(3-NMe2))[Pip]A[Pro(4R-Me)]; ester 2-C)	0.978 µM	3.59	0.355	1.43	0.476	1.77	0.474	1.89	0.45 µM	2.19	0.552	2.53	0.181	1.88	0.624	3.94	0.448 µM	4.53 µM	0.441	7.27
O=c1cccc(C#CC#C/C=C/CO)o1	1.91 µM	3.6	2.02	3.56	2.09	3.52	4.12		1.31 µM	7.68	2.09	4.34	2.63	> 100	> 100	> 100	2.36 µM	4.46 µM	1.89	3.84
Cn1c(=S)sc2nc3ccccc3n2c1=S		39.2		25.9		35.2		18.7		58.7		29.1		88.1		23.2		39.6 µM		25.1
CSc1nc2c(c(=O)[nH]1)C(c1ccc(Cl)cc1)C1=C(N2)/C(=C/c2ccc(Cl)cc2)CNC1 (stereo not drawn)	2.11 µM	5.09	1.91	3.53	1.96	3.57	2.23	6.18	1.62 µM	3.27	2.53	6.25	0.629	3.14	1.9	5.87	3.65 µM	15.7 µM	1.61	3.09
O=C1c2ccccc2C(=O)c2c1ccc1c2OCO1		> 100		> 100		> 100		> 100		> 100		> 100		> 100		> 100		> 100 µM		> 100
NC[C@@](O)(c1ccc(Cl)cc1)c1ccc(-c2cn[nH]c2)cc1	0.73 µM and 1.27 µM		1.48	3.18	> 100	> 100	2.34	5.98	1.42 µM and 2.19 µM	> 100	8.67	> 10	2.23	4.95	1.16	4.64	1.42 µM and 1.23 µM	2.87 µM and 2.83 µM	1.49	3
